Reference: US20240269139A1, “COMPOUNDS FOR TARGETED PROTEIN DEGRADATION OF KINASES” (DANA-FARBER CANCER INSTITUTE, INC., priority 2020, published 2024)
Where two headings read alike, the source gives them in different places.

What was measured:
Format in all cases: cell-based
[1] = target: T1, protein kinases (human kinome) (Homo sapiens, UniProt O14965)
T1 sequence (O14965 1-403): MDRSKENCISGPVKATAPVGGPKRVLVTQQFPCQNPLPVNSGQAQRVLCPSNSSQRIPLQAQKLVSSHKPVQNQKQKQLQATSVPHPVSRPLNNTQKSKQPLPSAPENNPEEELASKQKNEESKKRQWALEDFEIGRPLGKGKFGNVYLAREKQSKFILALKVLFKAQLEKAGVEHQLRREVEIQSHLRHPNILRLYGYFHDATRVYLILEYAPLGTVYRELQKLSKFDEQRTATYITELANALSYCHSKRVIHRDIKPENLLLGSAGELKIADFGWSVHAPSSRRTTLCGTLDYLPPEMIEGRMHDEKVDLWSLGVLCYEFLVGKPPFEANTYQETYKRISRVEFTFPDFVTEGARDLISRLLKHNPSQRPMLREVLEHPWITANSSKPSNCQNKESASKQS

[2] = target: protein kinases (human kinome) (Homo sapiens, UniProt Q2M2I8); conditions: experiment wp071
Chain of protein kinases (human kinome) (Homo sapiens, UniProt Q2M2I8) (Q2M2I8 whole entry): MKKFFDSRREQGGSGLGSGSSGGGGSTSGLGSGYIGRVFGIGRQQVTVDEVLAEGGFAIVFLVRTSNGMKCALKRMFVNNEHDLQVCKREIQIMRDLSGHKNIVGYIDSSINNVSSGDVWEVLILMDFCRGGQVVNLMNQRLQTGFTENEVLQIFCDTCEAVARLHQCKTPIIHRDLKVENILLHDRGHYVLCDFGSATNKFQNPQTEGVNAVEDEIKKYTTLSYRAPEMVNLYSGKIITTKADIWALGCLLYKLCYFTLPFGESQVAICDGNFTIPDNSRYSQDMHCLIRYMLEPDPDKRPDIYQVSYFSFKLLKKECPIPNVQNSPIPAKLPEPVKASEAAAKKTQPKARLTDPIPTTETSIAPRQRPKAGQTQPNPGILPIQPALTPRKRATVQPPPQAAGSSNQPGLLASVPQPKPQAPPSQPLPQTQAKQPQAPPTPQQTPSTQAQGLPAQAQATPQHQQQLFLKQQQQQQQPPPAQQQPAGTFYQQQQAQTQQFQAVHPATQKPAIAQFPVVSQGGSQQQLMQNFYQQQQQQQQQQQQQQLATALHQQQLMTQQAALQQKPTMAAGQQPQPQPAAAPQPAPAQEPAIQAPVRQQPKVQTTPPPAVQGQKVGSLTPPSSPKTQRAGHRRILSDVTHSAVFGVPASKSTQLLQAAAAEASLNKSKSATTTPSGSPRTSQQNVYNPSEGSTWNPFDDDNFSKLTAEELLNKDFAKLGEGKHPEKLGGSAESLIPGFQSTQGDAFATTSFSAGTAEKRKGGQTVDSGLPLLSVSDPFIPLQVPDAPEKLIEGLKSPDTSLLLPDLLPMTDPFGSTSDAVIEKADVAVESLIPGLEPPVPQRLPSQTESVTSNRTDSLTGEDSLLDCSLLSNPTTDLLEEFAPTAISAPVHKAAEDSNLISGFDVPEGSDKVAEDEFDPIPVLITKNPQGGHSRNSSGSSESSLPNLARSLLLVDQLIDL

[3] = tested on: protein kinases (human kinome)
[4] = target: protein kinases (human kinome) (Homo sapiens, UniProt P30291); conditions: experiment wp076; for logFC of WEE1: WEE1 P30291-1, degrader vs DMSO
Chain of protein kinases (human kinome) (Homo sapiens, UniProt P30291) (P30291 whole entry): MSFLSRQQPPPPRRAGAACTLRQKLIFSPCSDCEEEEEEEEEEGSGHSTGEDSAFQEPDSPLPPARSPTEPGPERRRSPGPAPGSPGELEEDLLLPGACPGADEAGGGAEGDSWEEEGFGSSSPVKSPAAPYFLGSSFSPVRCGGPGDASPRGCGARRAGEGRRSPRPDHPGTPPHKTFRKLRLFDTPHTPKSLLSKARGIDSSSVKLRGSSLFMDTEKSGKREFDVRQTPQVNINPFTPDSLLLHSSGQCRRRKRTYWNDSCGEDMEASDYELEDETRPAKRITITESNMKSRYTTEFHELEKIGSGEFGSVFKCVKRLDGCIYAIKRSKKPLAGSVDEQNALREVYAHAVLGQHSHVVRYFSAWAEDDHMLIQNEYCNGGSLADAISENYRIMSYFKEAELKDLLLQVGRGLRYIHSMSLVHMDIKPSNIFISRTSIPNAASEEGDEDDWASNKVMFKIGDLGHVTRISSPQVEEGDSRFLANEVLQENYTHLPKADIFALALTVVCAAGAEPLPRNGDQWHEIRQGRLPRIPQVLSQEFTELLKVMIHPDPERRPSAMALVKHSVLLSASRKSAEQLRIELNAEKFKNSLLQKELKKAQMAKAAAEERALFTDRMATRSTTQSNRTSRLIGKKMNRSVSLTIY

[5] = Accession O60566-3, experiment wp076, direction down
[6] = BUB1B (O60566-3), experiment wp076
[7] = CSNK1A1 (P48729-2), experiment wp076
[8] = CLK1 P49759-3, experiment wp076

Cc1cnc(Nc2ccc(N3CCN(CCOCCOCCNC(=O)COc4cccc5c4C(=O)N(C4CCC(=O)NC4=O)C5=O)CC3)cc2)nc1Nc1cccc(S(=O)(=O)NC(C)(C)C)c1 (stereo not drawn) [JWG.118]
logFC AURKA (O14965) ([1]; experiment wp071): −0.8861 | logFC AAK1 ([2]; AAK1 (Q2M218-1), down): −3.044 | logFC AAK1 ([2]; AAK1, accession Q2M218-1, direction of change down): −3.044 | logFC ([3]; GK P32189-3, experiment wp071): −0.4317

CNC(=O)c1ccccc1Nc1cc(Nc2ccc(N3CCN(CCOCCOCCNC(=O)CNc4cccc5c4C(=O)N(C4CCC(=O)NC4=O)C5=O)CC3)cc2OC)ncc1C(F)(F)F (stereo not drawn) [MFH.5.103.1]
logFC AURKA (O14965) ([1]; experiment wp076): −0.9893 | logFC AURKA (O14965) ([1]; experiment wp078): −0.9893 | logFC WEE1 (P30291-1) [4]: −0.9694 | logFC RPS6KA1 ([3]; RPS6KA1 (Q15418-2), experiment wp076): −1.583 | logFC RPS6KA1 (Q15418-2) ([3]; experiment wp076): −1.583

CCc1cnn2c(N(Cc3ccc(N)nc3)C(=O)CCOCCOCCOCCNC(=O)CNc3cccc4c3C(=O)N(C3CCC(=O)NC3=O)C4=O)cc(N3CCCC[C@H]3CCO)nc12 (stereo partly drawn) [MFH.5.115.2]
logFC AURKA (O14965) ([1]; experiment wp076): −0.5912 | logFC of WEE1 [4]: −0.7664 | logFC WEE1 (P30291-1) [4]: −0.7664 | logFC BUB1B [3, 5]: −0.5013 | logFC BUB1B [3, 6]: −0.5013 | logFC [3, 7]: −0.349 | logFC of CSNK1A1 (P48729-2) ([3]; experiment wp076): −0.349

O=C1CCC(N2C(=O)c3cccc(NCCCCCCCCN4CCC(NC(=O)c5[nH]ncc5NC(=O)c5c(Cl)cccc5Cl)CC4)c3C2=O)C(=O)N1 (stereo not drawn) [MFH.5.126.1]
logFC AURKA (O14965) ([1]; experiment wp076): −0.9474 | logFC of WEE1 [4]: −0.9048 | logFC WEE1 (P30291-1) [4]: −0.9048 | logFC BUB1B [3, 5]: −0.7532 | logFC CSNK1D ([3]; Accession P48730-2, experiment wp076, direction down): −0.9201 | logFC GSK3B ([3]; Accession P49841-2, experiment wp078, direction down): −0.9629 | logFC BUB1B [3, 6]: −0.7532 | logFC ([3]; CDK9 (P50750-2) protein abundance, degrader vs DMSO, down): −0.7008 | logFC [3, 8]: −1.494 | logFC CLK1 [3, 8]: −1.494 | logFC [3, 7]: −0.4586 | logFC CSNK1D ([3]; CSNK1D P48730-2, experiment wp076): −0.9201 | logFC DAPK1 (P53355-3) ([3]; Experiment wp076, direction of change down): −0.4488 | logFC GSK3B ([3]; GSK3B P49841-2, experiment wp076): −0.9629 | logFC CDK9 (P50750-2) ([3]; experiment wp076): −0.7008 | logFC of CSNK1A1 (P48729-2) ([3]; experiment wp076): −0.4586 | logFC DAPK1 ([3]; protein DAPK1 (P53355-3), experiment wp076, down): −0.4488
